These results are taken from ChEMBL document CHEMBL2069188, “Structural requirements for the antitubercular quaternized triflupromazine pharmacophore” (Bioorg Med Chem Lett, 2012).

In brackets after ≈: the same amount, converted by molar mass.

Broadly, the MIC90 is the lowest concentration that inhibits either 90% of growth or 90% of the strains tested, depending on the study. In general, IC50 refers to the concentration needed to halve the response being measured.

For experiment [1], the system named is Mycobacterium tuberculosis. Kind of experiment: Antitubercular activity against Mycobacterium tuberculosis H37Rv by microplate alamar blue assay. The format is functional. A general note: Alamar Blue is a resazurin reagent that responds to reducing activity.
For a further experiment, the system named is Vero. Nature of the experiment: Cytotoxicity against african green monkey Vero cells […] after 3 days. To be noted: Chlorocebus sabaeus, 72 h. It is filed as cell-based.
Experiment [2] is described as follows: Selectivity index, ratio of IC50 for african green monkey Vero cells to MIC for Mycobacterium tuberculosis H37Rv. It is filed as functional.

As for `C[N+](C)(CCCN1c2ccccc2Sc2ccc(C(F)(F)F)cc21)Cc1ccc(Br)cc1.[Br-]`, the MIC90 in experiment [1] came to 6 µM. In addition, in the experiment with Vero, the IC50 is above 128 µM. In addition, the “Selectivity Index” value in experiment [2] was above 21.
For `C[N+](C)(CCCN1c2ccccc2Sc2ccc(C(F)(F)F)cc21)Cc1ccc(I)cc1.[Br-]`, in that order: 5.9 µM, 92.7 µM and above 16.
As to `FC(F)(F)c1ccc2c(c1)N(Cc1cn(Cc3ccc(Cl)cc3)nn1)c1ccccc1S2`, in experiment [1], the MIC90 is above 100 µM. The same molecule came in with an IC50 with Vero above 128 µM.
For `CCCC[N+](C)(C)CCCN1c2ccccc2Sc2ccc(C(F)(F)F)cc21`, the MIC90 in experiment [1] was found to be 53.2 µM.
On the same count and under the same terms, the figure for `C#CC[N+](C)(C)CCCN1c2ccccc2Sc2ccc(C(F)(F)F)cc21` is 121 µM.
`C[N+](C)(CC#N)CCCN1c2ccccc2Sc2ccc(C(F)(F)F)cc21` came in with an MIC90 in experiment [1] above 128 µM.
On the same count and under the same terms, the value for `C=CC[N+](C)(C)CCCN1c2ccccc2Sc2ccc(C(F)(F)F)cc21` was above 128 µM.
On the same count and under the same terms, the value for `C=CC[N+](C)(C)CCCN1c2ccccc2Sc2ccccc21` was above 128 µM; that for `C#CC[N+](C)(C)CCCN1c2ccccc2Sc2ccccc21` was above 128 µM.
In turn, `C[N+](C)(CCCN1c2ccccc2Sc2ccc(C(F)(F)F)cc21)Cc1ccc(F)cc1.[Cl-]` came in with an MIC90 in experiment [1] of 11.9 µM. The IC50 in the experiment on Vero is above 128 µM. For the same molecule, the “Selectivity Index” value in experiment [2] was above 11.
In the case of `C[N+](C)(CCCN1c2ccccc2Sc2ccc(C(F)(F)F)cc21)Cc1ccc(Cl)cc1.[Cl-]`, the MIC90 in experiment [1] is 9 µM. In the experiment on Vero, this molecule showed an IC50 above 128 µM. In addition, in experiment [2], the “Selectivity Index” value is listed as above 14.
The molecule `CO[C@H]1/C=C/O[C@@]2(C)Oc3c(C)c(O)c4c(O)c(c(/C=N/N5CCN(C)CC5)c(O)c4c3C2=O)NC(=O)/C(C)=C\C=C\[C@H](C)[C@H](O)[C@@H](C)[C@@H](O)[C@@H](C)[C@H](OC(C)=O)[C@@H]1C` [RIFAMPIN] came in with an MIC90 in experiment [1] of 0.09 µM (≈ 0.0741 µg/mL). The same molecule showed an IC50 with Vero above 100 µM. Further, in experiment [2], the “Selectivity Index” value was above 909.
